Assay results from US11203574B2 (BioCryst Pharmaceuticals, Inc., priority 2014, dated 2021).

What follows are compounds tested against human plasma kallikrein (Homo sapiens (Human), UniProt P03952) (assay: Plasma kallikrein activity assay (chromogenic substrate S2302)). Conditions: 2 nM kallikrein, 80 μM S2302, 30° C., pH 7.8; Ki by Cheng-Prusoff equation; values given as ranges; read-out: Ki.
Assay type: biochemical
Method: Plasma Kallikrein Activity Assay.
The effect of compounds of the invention on human plasma kallikrein activity was determined using the chromogenic substrates (DiaPharma Group, Inc., West Chester, Ohio, USA). In these experiments, 2 nM kallikrein (Enzyme Research Laboratories, South Bend, Ind., USA) was incubated with 80 μM S2302 (H-D-Pro-Phe-Arg-p-nitroaniline) in the absence or presence of increasing concentrations of compounds of the invention in a final volume of 200 μL Tris-HCl buffer (200 mM NaCl; mM CaCl2; 50 mM Tris-HCl, pH 7.8).
Data were analyzed using SigmaPlot software (Systat Software, Inc., San Jose, Calif., USA) (Four Parameter Logistic Curve).

Sequence of human plasma kallikrein (P03952 whole entry, looked up): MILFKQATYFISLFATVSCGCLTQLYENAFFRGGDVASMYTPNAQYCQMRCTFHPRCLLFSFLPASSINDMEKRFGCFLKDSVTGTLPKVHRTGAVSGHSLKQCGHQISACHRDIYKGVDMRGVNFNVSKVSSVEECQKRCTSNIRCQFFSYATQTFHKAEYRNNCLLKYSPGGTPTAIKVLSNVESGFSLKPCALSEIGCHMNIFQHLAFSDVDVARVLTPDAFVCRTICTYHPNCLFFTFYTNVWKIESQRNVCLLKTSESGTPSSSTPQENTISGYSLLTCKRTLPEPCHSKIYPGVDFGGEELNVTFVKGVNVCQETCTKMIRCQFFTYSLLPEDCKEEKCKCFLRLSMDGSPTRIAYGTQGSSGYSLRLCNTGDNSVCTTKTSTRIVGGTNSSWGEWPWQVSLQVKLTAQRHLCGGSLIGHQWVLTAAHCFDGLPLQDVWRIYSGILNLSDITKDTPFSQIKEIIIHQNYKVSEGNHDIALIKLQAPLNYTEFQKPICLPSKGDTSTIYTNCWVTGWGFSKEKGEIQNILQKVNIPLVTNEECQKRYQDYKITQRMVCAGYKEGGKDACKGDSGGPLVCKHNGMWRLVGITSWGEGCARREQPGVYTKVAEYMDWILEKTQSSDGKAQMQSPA
Sequence of human plasma kallikrein (P03952 whole entry partner, looked up): as the sequence (P03952 whole entry, looked up) above

SMILES | Ki
N#Cc1ccc(C(N)(CCC2CC2)c2ccc(F)c(NC(=O)c3cc(C(N)=O)nn3-c3cccc(CN)c3)c2)cc1 (single isomer, unassigned; (+)) [231d, (+)-N^5-(5-(1-amino-1-(4-cyanophenyl)-3-cyclopropylpropyl)-2-fluorophenyl)-1-(3-(aminomethyl)phenyl)-1H-pyrazole-3,5-dicarboxamide] | 0.1 to 50 nM
NCc1cccc(-n2nc(C(F)(F)F)cc2C(=O)Nc2cccc(C(OCC3CC3)c3cccc(N)c3)c2)c1 (single isomer, unassigned; (+)) [64b, (+)-1-(3-(aminomethyl)phenyl)-N-(3-((3-aminophenyl)(cyclopropyl-methoxy)methyl)phenyl)-3-(trifluoromethyl)-1H-pyrazole-5-carboxamide] | 0.1 to 50 nM
CCCOC(c1ccccc1)c1cccc(NC(=O)c2cc(C(F)(F)F)nn2-c2cccc(CN)c2)c1 (stereo not shown) [18h, 1-(3-(aminomethyl)phenyl)-N-(3-(phenyl(propoxy)methyl)phenyl)-3-(trifluoromethyl)-1H-pyrazole-5-carboxamide] | 50 to 100 nM
NCc1cccc(-n2nc(C(F)(F)F)cc2C(=O)Nc2cccc(C(O)(CCC3CC3)c3ccccc3)c2)c1 (single isomer, unassigned; (-)) [46i, (−)-1-(3-(aminomethyl)phenyl)-N-(3-(3-cyclopropyl-1-hydroxy-1-phenylpropyl)phenyl)-3-(trifluoromethyl)-1H-pyrazole-5-carboxamide] | 0.1 to 50 nM
N#Cc1ccc(C(N)(CCC2CC2)c2ccc(F)c(NC(=O)c3cc(C(F)(F)F)nn3-c3ccc4ccnc(N)c4c3)c2)cc1 (single isomer, unassigned; (+)) [254c, (+)-N-(5-(1-amino-1-(4-cyanophenyl)-3-cyclopropylpropyl)-2-fluorophenyl)-1-(1-aminoisoquinolin-7-yl)-3-(trifluoromethyl)-1H-pyrazole-5-carboxamide] | 0.1 to 50 nM
NCc1cccc(-n2nc(C(F)(F)F)cc2C(=O)Nc2cccc(C(OCC3CC3)c3cccnc3)c2)c1 (single isomer, unassigned; (+)) [44d, (+)-1-(3-(aminomethyl)phenyl)-N-(3-((cyclopropylmethoxy)(pyridin-3-yl)methyl)phenyl)-3-(trifluoromethyl)-1H-pyrazole-5-carboxamide] | 0.1 to 50 nM
NCc1cccc(-n2nc(C(F)(F)F)cc2C(=O)Nc2cccc(C(OCC3CC3)c3ccccc3)c2)c1 (single isomer, unassigned; (-)) [165e, (−)-1-(3-(aminomethyl)phenyl)-N-(3-((cyclopropylmethoxy)(phenyl)methyl)phenyl)-3-(trifluoromethyl)-1H-pyrazole-5-carboxamide] | 0.1 to 50 nM
CC(=O)Nc1ccc(C(OCC2CC2)c2cccc(NC(=O)c3cc(C(F)(F)F)nn3-c3cccc(CN)c3)c2)cc1 (stereo not shown) [147e, N-(3-((4-acetamidophenyl)(cyclopropylmethoxy)methyl)phenyl)-1-(3-(aminomethyl)phenyl)-3-(trifluoromethyl)-1H-pyrazole-5-carboxamide] | 0.1 to 50 nM
NCc1cccc(-n2nc(C(F)(F)F)cc2C(=O)Nc2cccc(C(NC3CCC3)c3ccccc3)c2)c1 (stereo not shown) [188b, 1-(3-(Aminomethyl)phenyl)-N-(3-((cyclobutylamino)(phenyl)methyl)phenyl)-3-(trifluoromethyl)-1H-pyrazole-5-carboxamide] | 0.1 to 50 nM
NCc1cccc(-n2nc(C(F)(F)F)cc2C(=O)Nc2cccc(C(CCC3CC3)n3ccnc3)c2)c1 (stereo not shown) [89g, 1-(3-(aminomethyl)phenyl)-N-(3-(3-cyclopropyl-1-(1H-imidazol-1-yl)propyl)phenyl)-3-(trifluoromethyl)-1H-pyrazole-5-carboxamide] | 0.1 to 50 nM
COc1cccc(C(NCC2CC2)c2ccc(F)c(NC(=O)c3cc(C(F)(F)F)nn3-c3cccc(CN)c3)c2)c1 (stereo not shown) [141e, 1-(3-(aminomethyl)phenyl)-N-(5-(((cyclopropylmethyl)amino)(3-methoxyphenyl)methyl)-2-fluorophenyl)-3-(trifluoromethyl)-1H-pyrazole-5-carboxamide] | 0.1 to 50 nM
N=C(N)c1cccc(-n2nc(C(F)(F)F)cc2C(=O)Nc2cc(C(N)(CCC3CC3)c3cccnc3)ccc2F)c1 (single isomer, unassigned; (+)) [238d, (+)-N-(5-(1-amino-3-cyclopropyl-1-(pyridin-3-yl)propyl)-2-fluorophenyl)-1-(3-carbamimidoylphenyl)-3-(trifluoromethyl)-1H-pyrazole-5-carboxamide] | 0.1 to 50 nM
Cc1ccccc1C(NCC1CC1)c1cccc(NC(=O)c2cc(C(F)(F)F)nn2-c2cccc(CN)c2)c1 (stereo not shown) [193f, 1-(3-(Aminomethyl)phenyl)-N-(3-(((cyclopropylmethyl)amino)(o-tolyl)methyl)phenyl)-3-(trifluoromethyl)-1H-pyrazole-5-carboxamide] | 0.1 to 50 nM
Cc1cc(C(=O)Nc2cccc(C(NCC3CC3)c3ccccc3)c2)n(-c2cccc(CN)c2)n1 (stereo not shown) [143l, 1-(3-(aminomethyl)phenyl)-N-(3-((cyclopropylmethylamino)(phenyl)methyl)phenyl)-3-methyl-1H-pyrazole-5-carboxamide] | 0.1 to 50 nM
NCc1cccc(C(NCC2CC2)c2ccc(F)c(NC(=O)c3cc(C(F)(F)F)nn3-c3cccc(CN)c3)c2)c1 (stereo not shown) [155c, 1-(3-(aminomethyl)phenyl)-N-(5-((3-(aminomethyl)phenyl)(cyclopropylmethylamino)methyl)-2-fluorophenyl)-3-(trifluoromethyl)-1H-pyrazole-5-carboxamide] | 0.1 to 50 nM
N#Cc1cccc(C(NCC2CC2)c2ccc(F)c(NC(=O)c3cc(C(F)(F)F)nn3-c3cccc(C(=N)N)c3)c2)c1 (single isomer, unassigned; (+)) [236h, (+)-1-(3-carbamimidoylphenyl)-N-(5-((3-cyanophenyl)(cyclopropylmethylamino)methyl)-2-fluorophenyl)-3-(trifluoromethyl)-1H-pyrazole-5-carboxamide] | 0.1 to 50 nM
Cc1cccc(C(NCC2CC2)c2ccc(F)c(NC(=O)c3cc(C(F)(F)F)nn3-c3cccc(CN)c3)c2)c1 (stereo not shown) [140e, 1-(3-(aminomethyl)phenyl)-N-(5-(((cyclopropylmethyl)amino)(m-tolyl)methyl)-2-fluorophenyl)-3-(trifluoromethyl)-1H-pyrazole-5-carboxamide] | 0.1 to 50 nM
NCc1cccc(-n2nc(C(F)(F)F)cc2C(=O)Nc2cccc(C(NCC3CC3)c3ccccc3)c2F)c1 (stereo not shown) [88b, 1-(3-(aminomethyl)phenyl)-N-(3-((cyclopropylmethylamino)(phenyl)methyl)-2-fluorophenyl)-3-(trifluoromethyl)-1H-pyrazole-5-carboxamide] | 0.1 to 50 nM
NCc1cccc(-n2nc(C(F)(F)F)cc2C(=O)Nc2cc(C(N)(CCC3CC3)c3ccc(C(N)=O)nc3)ccc2F)c1 (single isomer, unassigned; (+)) [221i, (+)-5-(1-amino-1-(3-(1-(3-(aminomethyl)phenyl)-3-(trifluoromethyl)-1H-pyrazole-5-carboxamido)-4-fluorophenyl)-3-cyclopropylpropyl)picolinamide] | 0.1 to 50 nM
NCc1cccc(-n2nc(C(F)(F)F)cc2C(=O)Nc2cccc(C(NCC3CC3)c3cccnc3)c2)c1 (stereo not shown) [79f, 1-(3-(Aminomethyl)phenyl)-N-(3-(((cyclopropylmethyl)amino)(pyridin-3-yl)methyl)phenyl)-3-(trifluoromethyl)-1H-pyrazole-5-carboxamide] | 0.1 to 50 nM
Cc1cc(C(N)(CCC2CC2)c2ccc(F)c(NC(=O)c3cc(C(F)(F)F)nn3-c3cccc(CN)c3)c2)ccn1 (single isomer, unassigned; (+)) [266j, (+)-N-(5-(1-amino-3-cyclopropyl-1-(2-methylpyridin-4-yl)propyl)-2-fluorophenyl)-1-(3-(aminomethyl)phenyl)-3-(trifluoromethyl)-1H-pyrazole-5-carboxamide] | 0.1 to 50 nM
NCc1cccc(-n2nc(C(F)(F)F)cc2C(=O)Nc2cccc(C(OCC3CC3)c3cccnc3)c2)c1 (single isomer, unassigned; (-)) [44e, (−)-1-(3-(aminomethyl)phenyl)-N-(3-((cyclopropylmethoxy)(pyridin-3-yl)methyl)phenyl)-3-(trifluoromethyl)-1H-pyrazole-5-carboxamide] | 0.1 to 50 nM
NCc1cccc(-n2nc(C(F)(F)F)cc2C(=O)Nc2cccc(C(NC(=O)C3CC3)c3ccccc3)c2)c1 (stereo not shown) [115e, 1-(3-(aminomethyl)phenyl)-N-(3-(cyclopropanecarboxamido(phenyl)methyl)phenyl)-3-(trifluoromethyl)-1H-pyrazole-5-carboxamide] | 50 to 100 nM
CC(C)CC(=O)NC(CCC1CC1)(c1cccnc1)c1ccc(F)c(NC(=O)c2cc(C(F)(F)F)nn2-c2cccc(CN)c2)c1 (single isomer, unassigned; (-)) [244k, (−)-1-(3-(aminomethyl)phenyl)-N-(5-(3-cyclopropyl-1-(3-methylbutanamido)-1-(pyridin-3-yl)propyl)-2-fluorophenyl)-3-(trifluoromethyl)-1H-pyrazole-5-carboxamide] | 0.1 to 50 nM
CN1CCc2c(ccc(NC(=O)c3cc(C(F)(F)F)nn3-c3cccc(CN)c3)c2F)C1 [164e, 1-(3-(aminomethyl)phenyl)-N-(5-fluoro-2-methyl-1,2,3,4-tetrahydroisoquinolin-6-yl)-3-(trifluoromethyl)-1H-pyrazole-5-carboxamide] | 0.1 to 50 nM
NCc1cccc(-n2nc(C(F)(F)F)cc2C(=O)Nc2cccc(C(NCC3CC3)c3nccs3)c2)c1 (stereo not shown) [85c, 1-(3-(aminomethyl)phenyl)-N-(3-((cyclopropylmethylamino)(thiazol-2-yl)methyl)phenyl)-3-(trifluoromethyl)-1H-pyrazole-5-carboxamide] | 0.1 to 50 nM
CCCN(c1ccccc1)c1cccc(NC(=O)c2cc(C(F)(F)F)nn2-c2cccc(CN)c2)c1F [29e, 1-(3-(aminomethyl)phenyl)-N-(2-fluoro-3-(phenyl(propyl)amino)phenyl)-3-(trifluoromethyl)-1H-pyrazole-5-carboxamide] | 0.1 to 50 nM
NCc1cccc(-n2nc(C(F)(F)F)cc2C(=O)Nc2cccc(N(CCC3CC3)c3ccccc3)c2)c1 [87f, 1-(3-(aminomethyl)phenyl)-N-(3-((2-cyclopropylethyl)(phenyl)amino)phenyl)-3-(trifluoromethyl)-1H-pyrazole-5-carboxamide] | 0.1 to 50 nM
